This passage reports AC50 results from patent US12344610B2, “APOL1 inhibitors and methods of use” (Maze Therapeutics, Inc., priority 2022, dated 2025).

The test concerns the target T1, APOL1 G2 (Homo sapiens, UniProt O14791, DEL388-389).
T1 construct: expressed in transfected cells; host or cells: HEK293 T-REx clonal line stably expressing GCaMP6f (HEK T-REx/GCaMP6f/APOL1 G2 K6.3), doxycycline induced
T1 sequence (O14791 with tags, fused parts or gaps DEL388-389): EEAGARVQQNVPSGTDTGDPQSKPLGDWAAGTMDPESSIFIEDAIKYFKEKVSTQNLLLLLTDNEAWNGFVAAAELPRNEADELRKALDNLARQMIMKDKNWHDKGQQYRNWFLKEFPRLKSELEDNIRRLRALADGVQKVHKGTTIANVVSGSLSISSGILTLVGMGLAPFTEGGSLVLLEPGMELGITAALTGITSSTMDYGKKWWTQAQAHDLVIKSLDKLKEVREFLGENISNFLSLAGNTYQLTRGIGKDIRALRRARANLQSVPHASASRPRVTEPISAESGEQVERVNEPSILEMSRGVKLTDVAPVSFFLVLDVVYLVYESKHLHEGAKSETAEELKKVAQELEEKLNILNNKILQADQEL
Kind of test: APOL1-mediated calcium transport (calcium influx) assay, HEK T-REx/GCaMP6f/APOL1 G2 K6.3 cells, FLIPR TETRA. Type of test: cell-based. The following applies: prevention of calcium influx; geometric mean of at least 2 assay runs; † = average of a technical replicate from a single assay run. Summed up: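 A HEK293 T-REx clone stably expressing GCaMP6f had APOL1 G2 induced with doxycycline (20 ng/mL solution added) for 6 h. Cells were then washed into Ca2+-free Tyrode's buffer (pH 7.4) and preincubated with compounds (duplicate 8-point) for 10 min at room temperature. Ca2+ injection to 5 mM final produced FLIPR GCaMP fluorescence, giving AC50 for influx inhibition (geometric mean, ≥2 runs).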
With `CC1(O)CN(c2ncc(OCCN3CCC4(CC3)C(=O)Nc3ccc(Cl)cc34)cn2)C1` [Compound 300, 5-chloro-1′-(2-{[2-(3-hydroxy-3-methylazetidin-1-yl)pyrimidin-5-yl]oxy}ethyl)-1,2-dihydrospiro[indole-3,4′-piperidin]-2-one], the AC50 turned out to be 674 nM.

With `O=C1Nc2ccc(Cl)cc2C12CCN(CCOc1cnc(N3CC(O)C3)nc1)CC2` [Compound 301, 5-chloro-1′-(2-{[2-(3-hydroxyazetidin-1-yl)pyrimidin-5-yl]oxy}ethyl)-1,2-dihydrospiro[indole-3,4′-piperidin]-2-one], the AC50 was 586 nM.

In the case of `CS(=O)(=O)C1CN(c2ncc(OCCN3CCC4(CC3)C(=O)Nc3ccc(Cl)cc34)cn2)C1` [Compound 302, 5-chloro-1′-(2-{[2-(3-methanesulfonylazetidin-1-yl)pyrimidin-5-yl]oxy}ethyl)-1,2-dihydrospiro[indole-3,4′-piperidin]-2-one], the concentration at half-maximal activity (AC50) stood at 1030 nM.

`CC(C)(O)c1ncc(OCCN2CCC3(CC2)C(=O)Nc2ccc(Cl)cc23)cn1` [Compound 305, 5-chloro-1′-(2-{[2-(2-hydroxypropan-2-yl)pyrimidin-5-yl]oxy}ethyl)-1,2-dihydrospiro[indole-3,4′-piperidin]-2-one]: the AC50 amounted to 649 nM.

For `CC1(O)CN(c2nccc3cc(OCCN4CCC5(CC4)C(=O)Nc4ccc(Cl)cc45)cnc23)C1` [Compound 306, 5-chloro-1′-(2-{[8-(3-hydroxy-3-methylazetidin-1-yl)-1,7-naphthyridin-3-yl]oxy}ethyl)-1,2-dihydrospiro[indole-3,4′-piperidin]-2-one], the AC50 was 1400 nM.

Regarding `O=C1Nc2ccc(Cl)cc2C12CCN(CCOc1cnc3c(N4CC(O)C4)nccc3c1)CC2` [Compound 314, 5-chloro-1′-(2-{[8-(3-hydroxyazetidin-1-yl)-1,7-naphthyridin-3-yl]oxy}ethyl)-1,2-dihydrospiro[indole-3,4′-piperidin]-2-one], the concentration at half-maximal activity (AC50) worked out at 968 nM.

Broadly, the AC50 is the concentration giving half of the maximal activity seen.
